Measured values from ChEMBL document CHEMBL1201862, “PubChem BioAssay data set” (2004).
Calls of active or inactive are those of the source.

How the values were obtained:
[1] = inhibitors of HIV Env-driven cell fusion, dose response, cherry-pick (AID 652057); type: functional, cell-based
[2] = ZM109 Env clade C HIV-1 fusion inhibitors, dose response, HeLa effector, CEM target cells, luciferase, cherry-pick (AID 652058); type: functional, cell-based
[3] = inhibitors of clade B AD8 Env fusion, dose response, cell-based, cherry-pick (AID 652062); type: functional;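 further: luciferase signal from cell-cell fusion driven by HIV-1 clade B AD8 Env; potency is for inhibitors of fusion seen as a drop in luminescence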
[4] = growth suppression of PTEN-null colon cells, dose response, cell-based, HCT116 PTEN knockout (AID 1047); type: functional;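 further: HCT116 colon tumor cells with PTEN knocked out; cells exposed to compound for 60 hours before readout; potency for loss of cell viability measured by luminescence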
[5] = growth suppression of beta-catenin-knockout colon cells, dose response, cell-based, HCT116, human colon tumor (AID 1045); type: functional;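 further: HCT116 colon tumor cells with beta catenin knocked out; cells exposed to compound for 60 hours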
[6] = THP-1 cell cytotoxicity, dose response, cytotoxicity control for non-replicating M. tuberculosis project (AID 489025); type: functional
[7] = Luminescence Cell-Based Dose Retest to Confirm Inhibitors of Cancer Stem Cells. [Related pubchem assays (depositor defined):AID2717, AID2721]; type: functional; conditions: Homo sapiens
cells = type: functional
[8] = target: Voltage-dependent T-type calcium channel subunit alpha-1H (Homo sapiens, UniProt O95180); type: functional;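 further: channel activity triggered by adding a high calcium stimulation buffer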
[9] = target: T1, Ubiquitin-conjugating enzyme E2 N (Homo sapiens, UniProt P61088); type: functional;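 further: Dose-response confirmation in a TR-FRET assay detecting UBC13-driven polyubiquitin chain formation, inhibition measured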
T1 sequence (P61088 whole entry): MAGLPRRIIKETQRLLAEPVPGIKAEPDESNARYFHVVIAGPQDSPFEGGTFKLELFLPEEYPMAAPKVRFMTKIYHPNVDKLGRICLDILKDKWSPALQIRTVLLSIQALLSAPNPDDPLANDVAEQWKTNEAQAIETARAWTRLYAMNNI

[10] = system: Streptococcus sp. 'group A'; experiment: growth inhibition of control SK(-) GAS strain, dose response, counter-screen for streptokinase expression inhibitor project, luminescence, kanamycin, BacTiterGlo, confirmation (AID 1900); type: functional, organism-based
Streptokinase A = target: T2, Streptokinase A (Streptococcus pyogenes serotype M1, UniProt P10520); experiment: S. pyogenes streptokinase expression inhibitors, potency, dose response, plasminogen activation absorbance, OD405 (AID 1914); type: functional, Streptococcus pyogenes M1 GAS;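 further: secreted streptokinase activity via plasminogen activation per viability signal from cell pellet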
T2 sequence (P10520 whole entry): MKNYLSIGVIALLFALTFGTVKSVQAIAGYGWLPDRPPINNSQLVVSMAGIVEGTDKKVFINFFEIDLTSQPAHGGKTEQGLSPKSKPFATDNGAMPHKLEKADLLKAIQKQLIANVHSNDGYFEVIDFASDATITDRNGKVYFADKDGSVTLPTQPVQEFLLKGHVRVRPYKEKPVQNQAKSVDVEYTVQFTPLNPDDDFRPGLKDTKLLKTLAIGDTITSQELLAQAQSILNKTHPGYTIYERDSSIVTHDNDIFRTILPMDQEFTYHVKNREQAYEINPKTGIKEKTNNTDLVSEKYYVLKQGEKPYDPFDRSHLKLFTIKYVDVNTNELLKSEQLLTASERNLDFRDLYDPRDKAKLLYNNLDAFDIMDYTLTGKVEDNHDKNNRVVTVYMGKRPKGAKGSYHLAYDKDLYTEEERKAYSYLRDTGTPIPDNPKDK

Streptococcus = experiment: Group A Streptococcus viability loss, dose response, counter-screen for streptokinase expression inhibitor project, luminescence, BacTiterGlo (AID 1915); type: functional, organism-based;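 further: potency for reduction of bacterial viability or growth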
[11] = intracellular Trypanosoma cruzi inhibitors in host cells – cell-based, plate reader, cherry-pick samples, set 3, dose response (AID 651818); type: functional;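 further: compounds incubated with infected cells for about four days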
Caspase-3 = target: T3, Caspase-3 (Homo sapiens, UniProt P42574); type: functional;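 further: Dose-response selectivity test against caspase-3 for candidate inhibitors of sentrin-specific proteases (SENPs)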
T3 sequence (P42574 whole entry): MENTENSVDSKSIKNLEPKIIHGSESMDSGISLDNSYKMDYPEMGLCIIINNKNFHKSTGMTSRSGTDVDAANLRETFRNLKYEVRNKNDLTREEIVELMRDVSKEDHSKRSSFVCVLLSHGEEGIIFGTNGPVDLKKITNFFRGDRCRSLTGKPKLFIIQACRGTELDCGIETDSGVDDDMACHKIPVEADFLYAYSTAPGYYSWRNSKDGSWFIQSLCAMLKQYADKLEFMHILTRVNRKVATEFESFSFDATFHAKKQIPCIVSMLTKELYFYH

[12] = target: T4, Sentrin-specific protease 7 (Homo sapiens, UniProt Q9BQF6); type: functional;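 further: Luminescence-based dose-response confirmation of ultra-high-throughput screening hits, measuring inhibition of SENP7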
T4 sequence (Q9BQF6 whole entry): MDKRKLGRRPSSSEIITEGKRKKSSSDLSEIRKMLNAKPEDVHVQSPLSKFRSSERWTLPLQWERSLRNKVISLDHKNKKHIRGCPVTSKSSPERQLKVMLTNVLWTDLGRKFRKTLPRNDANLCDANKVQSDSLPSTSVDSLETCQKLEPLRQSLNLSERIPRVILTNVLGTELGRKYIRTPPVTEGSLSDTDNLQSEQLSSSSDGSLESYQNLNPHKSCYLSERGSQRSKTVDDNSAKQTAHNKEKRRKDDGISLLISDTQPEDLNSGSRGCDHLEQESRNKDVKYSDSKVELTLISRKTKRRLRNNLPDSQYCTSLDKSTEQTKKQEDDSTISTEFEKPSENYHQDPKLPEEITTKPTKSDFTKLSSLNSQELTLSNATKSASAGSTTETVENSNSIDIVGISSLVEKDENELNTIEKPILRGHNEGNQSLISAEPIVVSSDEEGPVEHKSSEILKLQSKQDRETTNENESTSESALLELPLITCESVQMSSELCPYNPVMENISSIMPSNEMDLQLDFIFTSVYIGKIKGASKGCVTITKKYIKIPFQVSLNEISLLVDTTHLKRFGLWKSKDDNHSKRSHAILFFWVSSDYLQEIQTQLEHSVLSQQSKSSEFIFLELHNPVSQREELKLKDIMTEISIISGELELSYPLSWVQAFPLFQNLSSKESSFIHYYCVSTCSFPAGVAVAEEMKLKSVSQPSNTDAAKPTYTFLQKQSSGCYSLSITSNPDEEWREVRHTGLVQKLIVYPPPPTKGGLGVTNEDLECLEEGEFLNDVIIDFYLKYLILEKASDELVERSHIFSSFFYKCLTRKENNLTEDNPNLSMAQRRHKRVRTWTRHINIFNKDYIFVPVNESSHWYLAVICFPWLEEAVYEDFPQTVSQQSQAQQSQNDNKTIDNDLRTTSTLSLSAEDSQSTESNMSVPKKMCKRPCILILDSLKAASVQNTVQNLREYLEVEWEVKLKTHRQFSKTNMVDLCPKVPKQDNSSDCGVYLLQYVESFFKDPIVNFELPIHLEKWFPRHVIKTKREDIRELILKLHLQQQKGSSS

Nonstructural protein 1 = Nonstructural protein 1 (Influenza A virus, UniProt Q194T2); type: functional, Influenza A virus (A/California/07/2009(H1N1))
[13] = target: T5, Sentrin-specific protease 6 (Homo sapiens, UniProt Q9GZR1); type: functional;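 further: Luminescence-based dose-response confirmatory assay of SENP6 inhibition, following up an ultra-high-throughput screen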
T5 sequence (Q9GZR1 whole entry): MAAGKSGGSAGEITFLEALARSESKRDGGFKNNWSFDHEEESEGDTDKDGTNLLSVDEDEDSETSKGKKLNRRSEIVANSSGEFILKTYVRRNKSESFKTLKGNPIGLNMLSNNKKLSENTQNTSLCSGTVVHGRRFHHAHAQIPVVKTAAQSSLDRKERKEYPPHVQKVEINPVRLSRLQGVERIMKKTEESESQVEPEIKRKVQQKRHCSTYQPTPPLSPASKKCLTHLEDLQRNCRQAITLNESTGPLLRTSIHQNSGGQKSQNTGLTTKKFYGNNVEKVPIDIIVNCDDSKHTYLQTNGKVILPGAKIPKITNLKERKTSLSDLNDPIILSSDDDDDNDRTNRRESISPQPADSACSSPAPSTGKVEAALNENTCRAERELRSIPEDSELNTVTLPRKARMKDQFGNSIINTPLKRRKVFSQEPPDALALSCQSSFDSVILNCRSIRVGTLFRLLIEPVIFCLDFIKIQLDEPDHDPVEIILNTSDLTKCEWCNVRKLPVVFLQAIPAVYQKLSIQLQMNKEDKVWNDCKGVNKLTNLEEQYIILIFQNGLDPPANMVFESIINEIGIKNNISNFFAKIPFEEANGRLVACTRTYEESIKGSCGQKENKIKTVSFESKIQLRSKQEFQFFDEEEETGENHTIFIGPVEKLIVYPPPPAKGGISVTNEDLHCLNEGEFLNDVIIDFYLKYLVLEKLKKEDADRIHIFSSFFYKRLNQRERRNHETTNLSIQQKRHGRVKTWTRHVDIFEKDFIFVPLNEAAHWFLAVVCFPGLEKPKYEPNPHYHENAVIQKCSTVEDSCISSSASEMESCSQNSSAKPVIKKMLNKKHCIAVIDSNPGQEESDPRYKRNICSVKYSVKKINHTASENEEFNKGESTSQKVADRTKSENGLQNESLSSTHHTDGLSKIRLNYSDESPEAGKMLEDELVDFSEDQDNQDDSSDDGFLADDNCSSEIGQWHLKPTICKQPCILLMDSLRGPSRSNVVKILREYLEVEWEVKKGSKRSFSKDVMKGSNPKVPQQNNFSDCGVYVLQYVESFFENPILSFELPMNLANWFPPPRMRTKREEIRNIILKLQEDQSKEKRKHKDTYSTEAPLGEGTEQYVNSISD

[14] = target: T6, Sentrin-specific protease 8 (Homo sapiens, UniProt Q96LD8); type: functional;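 further: luminescence read-out of SENP8 inhibition, dose-response confirmation following an ultra-high-throughput screen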
T6 sequence (Q96LD8 whole entry): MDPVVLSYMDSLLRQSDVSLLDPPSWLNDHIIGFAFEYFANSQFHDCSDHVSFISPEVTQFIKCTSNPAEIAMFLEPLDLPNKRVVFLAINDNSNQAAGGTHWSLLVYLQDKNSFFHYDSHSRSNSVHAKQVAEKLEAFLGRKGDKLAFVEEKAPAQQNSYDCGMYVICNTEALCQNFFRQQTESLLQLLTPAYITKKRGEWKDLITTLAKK

[15] = target: T7, Rac GTPase-activating protein 1 (Homo sapiens, UniProt Q9H0H5); experiment: MgcRacGAP GTPase-activating activity inhibitors, confirmation, biochemical, ADP Hunter fluorescence, primary and confirmatory (AID 624330); type: functional
T7 sequence (Q9H0H5 whole entry): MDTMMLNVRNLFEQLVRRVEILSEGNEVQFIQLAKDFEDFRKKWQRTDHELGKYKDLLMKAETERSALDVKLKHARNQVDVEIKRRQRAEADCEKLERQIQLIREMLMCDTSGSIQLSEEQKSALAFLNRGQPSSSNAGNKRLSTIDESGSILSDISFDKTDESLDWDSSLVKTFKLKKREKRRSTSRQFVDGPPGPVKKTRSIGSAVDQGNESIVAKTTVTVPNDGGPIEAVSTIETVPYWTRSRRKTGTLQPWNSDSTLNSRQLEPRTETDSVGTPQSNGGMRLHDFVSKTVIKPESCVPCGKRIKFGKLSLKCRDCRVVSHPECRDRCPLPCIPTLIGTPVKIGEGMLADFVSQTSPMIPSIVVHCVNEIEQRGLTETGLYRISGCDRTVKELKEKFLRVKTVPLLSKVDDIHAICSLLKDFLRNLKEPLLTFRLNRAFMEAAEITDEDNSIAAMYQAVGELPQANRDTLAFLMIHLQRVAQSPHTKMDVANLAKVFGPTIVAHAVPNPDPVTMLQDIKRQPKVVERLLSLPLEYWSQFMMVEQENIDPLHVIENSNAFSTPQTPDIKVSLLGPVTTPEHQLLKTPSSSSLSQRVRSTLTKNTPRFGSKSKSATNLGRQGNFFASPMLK

Voltage-dependent T-type calcium channel subunit alpha-1H, sequence (O95180 whole entry): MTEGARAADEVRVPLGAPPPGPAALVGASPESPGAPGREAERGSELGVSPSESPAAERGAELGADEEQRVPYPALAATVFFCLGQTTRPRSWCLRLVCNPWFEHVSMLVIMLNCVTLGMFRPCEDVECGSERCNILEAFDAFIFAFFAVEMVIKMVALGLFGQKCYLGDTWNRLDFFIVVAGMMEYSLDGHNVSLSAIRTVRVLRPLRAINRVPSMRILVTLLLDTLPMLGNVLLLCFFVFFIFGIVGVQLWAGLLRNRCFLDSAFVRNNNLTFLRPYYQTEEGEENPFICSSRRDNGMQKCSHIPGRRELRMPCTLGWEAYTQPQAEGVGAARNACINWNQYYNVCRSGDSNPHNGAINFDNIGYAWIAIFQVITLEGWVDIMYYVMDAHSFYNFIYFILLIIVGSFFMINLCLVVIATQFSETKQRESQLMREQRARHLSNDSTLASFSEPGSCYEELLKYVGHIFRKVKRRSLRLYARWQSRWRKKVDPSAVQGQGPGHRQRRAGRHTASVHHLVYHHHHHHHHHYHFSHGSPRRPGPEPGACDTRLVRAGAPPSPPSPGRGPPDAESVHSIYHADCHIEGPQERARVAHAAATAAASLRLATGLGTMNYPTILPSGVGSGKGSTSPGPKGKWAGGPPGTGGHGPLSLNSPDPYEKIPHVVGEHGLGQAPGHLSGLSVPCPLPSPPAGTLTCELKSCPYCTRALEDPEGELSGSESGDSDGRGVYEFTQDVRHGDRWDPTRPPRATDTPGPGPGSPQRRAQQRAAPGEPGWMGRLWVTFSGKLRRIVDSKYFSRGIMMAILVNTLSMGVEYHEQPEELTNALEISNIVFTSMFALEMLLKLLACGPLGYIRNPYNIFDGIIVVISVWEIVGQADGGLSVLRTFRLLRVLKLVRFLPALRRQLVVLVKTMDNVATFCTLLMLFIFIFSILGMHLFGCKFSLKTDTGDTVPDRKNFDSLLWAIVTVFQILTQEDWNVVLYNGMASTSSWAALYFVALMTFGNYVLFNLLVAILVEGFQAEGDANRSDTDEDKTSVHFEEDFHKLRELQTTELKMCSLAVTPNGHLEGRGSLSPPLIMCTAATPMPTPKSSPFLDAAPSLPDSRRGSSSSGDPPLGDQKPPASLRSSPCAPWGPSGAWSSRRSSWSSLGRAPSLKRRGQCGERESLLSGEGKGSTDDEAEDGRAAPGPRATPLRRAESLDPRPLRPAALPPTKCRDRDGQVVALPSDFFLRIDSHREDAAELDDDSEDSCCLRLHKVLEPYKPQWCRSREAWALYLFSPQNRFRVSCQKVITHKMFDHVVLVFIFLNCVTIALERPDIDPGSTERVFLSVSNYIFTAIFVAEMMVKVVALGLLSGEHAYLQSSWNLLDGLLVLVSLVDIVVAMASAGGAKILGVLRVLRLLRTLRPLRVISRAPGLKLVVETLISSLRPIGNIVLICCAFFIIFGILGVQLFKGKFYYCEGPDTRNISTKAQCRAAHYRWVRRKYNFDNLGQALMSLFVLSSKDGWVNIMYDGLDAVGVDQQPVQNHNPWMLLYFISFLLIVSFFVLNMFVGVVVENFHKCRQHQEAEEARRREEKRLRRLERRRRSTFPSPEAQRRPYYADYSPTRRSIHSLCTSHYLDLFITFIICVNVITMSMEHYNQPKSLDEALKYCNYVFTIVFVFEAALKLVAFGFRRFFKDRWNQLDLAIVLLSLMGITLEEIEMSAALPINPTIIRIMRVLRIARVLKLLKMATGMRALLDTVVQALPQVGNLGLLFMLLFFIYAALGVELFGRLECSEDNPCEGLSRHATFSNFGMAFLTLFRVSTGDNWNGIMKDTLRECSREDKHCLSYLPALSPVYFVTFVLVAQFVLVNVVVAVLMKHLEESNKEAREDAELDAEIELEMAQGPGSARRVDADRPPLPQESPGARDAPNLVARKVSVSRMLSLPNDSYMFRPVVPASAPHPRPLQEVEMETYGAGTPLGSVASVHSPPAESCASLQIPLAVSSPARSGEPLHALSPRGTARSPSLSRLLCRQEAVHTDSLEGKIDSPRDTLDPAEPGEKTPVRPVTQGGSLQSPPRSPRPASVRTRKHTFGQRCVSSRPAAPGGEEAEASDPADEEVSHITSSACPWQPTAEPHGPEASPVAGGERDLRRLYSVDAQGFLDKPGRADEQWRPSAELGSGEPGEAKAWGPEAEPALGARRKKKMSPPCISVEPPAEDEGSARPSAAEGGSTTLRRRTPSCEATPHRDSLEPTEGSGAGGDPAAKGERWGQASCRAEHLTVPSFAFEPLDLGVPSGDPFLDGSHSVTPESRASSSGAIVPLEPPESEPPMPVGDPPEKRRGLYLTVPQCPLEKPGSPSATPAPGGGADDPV
Nonstructural protein 1, sequence (Q194T2 whole entry): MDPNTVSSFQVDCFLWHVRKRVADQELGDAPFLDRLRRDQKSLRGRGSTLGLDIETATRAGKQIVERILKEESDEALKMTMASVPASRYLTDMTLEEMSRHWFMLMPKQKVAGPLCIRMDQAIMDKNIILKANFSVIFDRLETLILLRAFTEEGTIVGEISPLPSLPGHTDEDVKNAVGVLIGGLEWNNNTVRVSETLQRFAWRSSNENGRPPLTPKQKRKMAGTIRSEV

O=C(NNS(=O)(=O)c1ccc(F)cc1F)C1Cc2c(ccc3ccccc23)O1 (stereo unspecified)
AC50 [1]: 8.04 µM (active) | AC50 [2]: 37.5 µM (active) | AC50 [3]: 24.2 µM (active)

CCOC(=O)c1c(NC(=O)C2COc3ccccc3O2)sc2c1CC(C)(C)NC2(C)C (stereo unspecified)
EC50 [4]: 10.6 µM (active) | EC50 [5]: 10.3 µM (active) | CC50 [6]: 25.3 µM (active) | AC50 [7]: 8.55 µM (active) | IC50 (cells): 36.2 µM (active)

Cc1cccc(-c2noc(CN(C(=O)c3ccc(Br)o3)C(C)C)n2)c1
EC50 [8]: 11.1 µM (active)

Cc1cc(NC(=O)C(C)Oc2ccc(Cl)cc2Cl)n(-c2ccccc2)n1 (stereo unspecified)
EC50 [8]: 8.91 µM (active)

O=C(CCCCCN1C(=O)c2cccc3cccc(c23)C1=O)NCCO
IC50 [9]: > 20 µM (inactive)

COc1ccc(/C=N/NC(=O)Cc2csc(Nc3cccc(C(F)(F)F)c3)n2)cc1C
EC50 [10]: 9.89 µM (active) | EC50 (Streptokinase A): 10.4 µM (active) | EC50 (Streptococcus): > 150 µM (not active) | EC50 [8]: 4.82 µM (active)

C[C@@H]1CN([C@@H](C)CO)C(=O)c2cccc(NC(=O)c3nc4ccccc4s3)c2O[C@H]1CN(C)Cc1ccc2c(c1)OCO2
AC50 [11]: 1.78 µM (active)

COc1ccc(NC(=O)Nc2ccc3c(c2)C(=O)N([C@H](C)CO)C[C@H](C)[C@@H](CN(C)CC2CCCCC2)OCCCC[C@@H](C)O3)cc1
AC50 [11]: 3.41 µM (active)

C[C@@H]1CN([C@H](C)CO)C(=O)Cc2cc(NS(=O)(=O)c3ccccc3)ccc2O[C@@H]1CN(C)Cc1ccc(Cl)c(Cl)c1
AC50 [11]: 3.52 µM (active)

C[C@H](CO)N1C[C@H](C)[C@H](CN(C)Cc2ccc(Cl)c(Cl)c2)Oc2c(NC(=O)c3ccc(-c4nccs4)cc3)cccc2C1=O
AC50 [11]: 4.5 µM (active)

C[C@H]1CN([C@@H](C)CO)C(=O)c2cccc(NC(=O)c3ccc(-c4nccs4)cc3)c2O[C@H]1CN(C)Cc1ccc(C(=O)Nc2ccccc2N)cc1
AC50 [11]: 1.49 µM (active)

CN(c1ccccc1)c1ccc(/C=N/N2CCOCC2)cc1
IC50 (Caspase-3): 18.8 µM (active) | IC50 [12]: 8.89 µM (active) | IC50 (Nonstructural protein 1): > 100 µM (active) | IC50 [13]: 27.3 µM (active) | IC50 [14]: 39.5 µM (active) | IC50 [15]: 37.2 µM (active)
